Assay results as given in patent EP0195316A1, “Quinolonecarboxylic acid derivatives” (KYORIN PHARMACEUTICAL CO., LTD., priority 1985, dated 1986).
In brackets after ≈: the same amount, converted by molar mass. Like-named read-outs stand apart in the source and are kept apart here. Marks after values point to notes of the source that are not given here.

Tests used:
[1] = system: nalidixic acid-resistant Salmonella typhimurium TA98 strain (nal^r); experiment: Mutagenicity, reverse mutation assay
From the text: As for antibacterial agents, assessment of mutagenicity using bacteria is somewhat difficult because of their activity on the test bacteria.

C. ramosum = experiment: MIC, in vitro antibacterial activity (standard strains); type: cell-based; conditions: Thomasclavelia ramosa, 10^6 cells/ml, Gram +
P. aeruginosa = experiment: MIC, in vitro antibacterial activity (clinical isolates); type: cell-based; conditions: Pseudomonas aeruginosa; clinical isolates P. aeruginosa, No. of strains 27; read-out: MIC
[2] = Absorption and metabolism in dogs (HPLC); type: in vivo, beagle dogs
Description: A 2 mg dose of the present compound was administered to beagle dogs orally or intravenously, and the serum levels were measured by HPLC (High-performance liquid chromatography).

in vivo [3] = conditions: rat, po, 10 mg/kg
[4] = system: Citrobacter freundii IID 976; experiment: MIC, in vitro antibacterial activity (standard strains); type: cell-based; conditions: IID976
Subacute toxicity in dog = type: in vivo; conditions: beagle dogs, oral, 20 mg/kg/day for 8 days then 50 mg/kg/day for 7 days
Description: Subacute toxicity study of the present compound was carried out in beagledogs (10 weeks old, n=3). To animals 20 mg/kg/day of the present compound for 8 days and after that 50 mg/kg/day for 7 days was administered orally.

P. aeruginosa IID 1210 = experiment: In vivo antibacterial activity against systemic infections in mice; conditions: Pseudomonas aeruginosa, IID1210; P. aeruginosa IID 1210 systemic infection (i.p.), male ICR mice, oral administration an hour after infection; read-out: ED50
Description: (§1) The infections were produced by intraperitoneal injection of suspension of the bacterial cells. The compounds were administered orally at an hour after the injection. Five male ICR mice were used for each dosage. […] The efficacy of the present compound are shown in Table 4 in comparison with those of the reference compounds.

S. pneumoniae S-4288 = experiment: as above; conditions: Streptococcus pneumoniae, S4288; S. pneumoniae S-4288 systemic infection (i.p.), male ICR mice, oral administration an hour after infection; read-out: ED50
Description: as §1

E. coli ML 4707 = experiment: as above; conditions: Escherichia coli, ML4707; E. coli ML 4707 systemic infection (i.p.), male ICR mice, oral administration an hour after infection; read-out: ED50
Description: as §1

S. aureus Smith = experiment: as above; conditions: Staphylococcus aureus; S. aureus Smith systemic infection (i.p.), male ICR mice, oral administration an hour after infection; read-out: ED50
Description: as §1

in vivo [5] = conditions: mouse, iv
[6] = Repeated oral administration to dog (reference compound); type: in vivo

NC1CCN(c2c(F)cc3c(=O)c(C(=O)O)cn(C4CC4)c3c2Cl)C1 (stereo not drawn) [Example 25, 7-(3-Amino-l-pyrrolidinyl)-8-chloro-l-cyclopropyl-6-fluoro-1,4-dihydro-4-oxo-3-quinolinecarboxylic acid]
His^+ revertants per plate ([1]; 0.005 µg/plate, S9-mix +): 60
His^+ revertants per plate ([1]; 0.005 µg/plate, S9-mix -): 28
His^+ revertants per plate ([1]; 0.01 µg/plate, S9-mix +): 48
His^+ revertants per plate ([1]; 0.01 µg/plate, S9-mix -): 29
His^+ revertants per plate ([1]; 0.05 µg/plate, S9-mix +): 39*
His^+ revertants per plate ([1]; 0.05 µg/plate, S9-mix -): 26
His^+ revertants per plate ([1]; 0.1 µg/plate, S9-mix +): 6*
His^+ revertants per plate ([1]; 0.1 µg/plate, S9-mix -): 16*
His^+ revertants per plate ([1]; 0.5 µg/plate, S9-mix +): 0*
His^+ revertants per plate ([1]; 0.5 µg/plate, S9-mix -): 0*
His revertant colonies compared with the solvent control ([1]; within measurable concentration, with and without the drug metabolic activation): no increment of His revertant colonies
MIC (C. ramosum): 0.78 µg/mL
MIC (P. aeruginosa): 0.2 µg/mL (≈ 0.547 µM)
urinary metabolites ([2]; animals (dogs section)): may be hardly metabolized
Serum levels by oral route versus intravenous route ([2]; beagle dogs, 2 mg dose, HPLC): almost equal to those by intravenous route
dose excreted at 24 h (in vivo [3]; Excretion rate (% of dose) Bile): 13.4%
dose excreted at 24 h (in vivo [3]; Excretion rate (% of dose) Urine): 21.7%
MIC ([4]; Citrobacter freundii): 0.0125 µg/mL (≈ 0.0342 µM)
changes in body weight and general conditions (Subacute toxicity in dog): No remarkable changes in body weight and general conditions
hematological examination and serum biochemical analysis (Subacute toxicity in dog): no abnormality with regard to hematological examination and serum biochemical analysis
ED50 (P. aeruginosa IID 1210): 2.9 mg/kg
ED50 (S. pneumoniae S-4288): 13 mg/kg
ED50 (E. coli ML 4707): 0.9 mg/kg
ED50 (S. aureus Smith): 2 mg/kg
LD50 (in vivo [5]): 242 mg/kg

CC1CN(c2c(F)cc3c(=O)c(C(=O)O)cn(C4CC4)c3c2Cl)CCN1 (stereo not drawn) [Ref.2, 8-Chloro-1-cyclopropyl-6-fluoro-1,4-dihydro-7-(3-methyl-1-piperazinyl)-4-oxo-3-quinolinecarboxylic acid]
MIC (C. ramosum): 3.13 µg/mL
MIC (P. aeruginosa): 1.56 µg/mL (≈ 4.11 µM)
GPT and TTT (hepatoxicity) [6]: marked elevation of GPT and decrease of TTT
side effect on central nervous system [6]: strong vomiting and clonic convulsion
MIC ([4]; Citrobacter freundii IID 976, 10^6 cells/ml, Gram -, read-out: MIC): 0.05 µg/mL (≈ 0.132 µM)
